Data from the supplement of paper PMC11061612.

Columns and labels:
Assay in all cases: Bliss excess, mean over the matrix (fraction); higher = more synergy
[1] = system: DU-145 (Prostate Carcinoma)
Summary of the method: (§1)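 Cell lines in DMEM/F12 or RPMI with 10% FBS were plated in 1536-well plates, held 24 hours at 37°C, 5% CO2, then given two-drug dose matrices for 72 hours (DMSO typically 0.2%). Viability was read by CellTiter-Glo 2.0 luminescence and scaled as inhibition from 0 (vehicle wells) to 1 (blank wells). Combination Emax is the second-highest inhibition in the matrix; Bliss excess is observed combination effect minus expected EA + EB − EA·EB, EA and EB being single-agent effects.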

[2] = system: SNU-387 (Hepatocellular Carcinoma)
Summary of the method: as §1

[3] = system: KGN (Other Solid Carcinomas)
Summary of the method: as §1

[4] = system: ME-180 (Cervical Carcinoma)
Summary of the method: as §1

[5] = system: MOG-G-UVW (Low Grade Glioma)
Summary of the method: as §1

[6] = system: EFO-21 (Ovarian Carcinoma)
Summary of the method: as §1

[7] = system: MDA-MB-453 (Breast Carcinoma)
Summary of the method: as §1

SK-N-AS (Neuroblastoma) = system: SK-N-AS (Neuroblastoma)
Summary of the method: as §1

[8] = system: SW982 (Other Solid Carcinomas)
Summary of the method: as §1

[9] = system: OE33 (Esophageal Adenocarcinoma)
Summary of the method: as §1

[10] = system: HAL-01 (B-Lymphoblastic Leukemia)
Summary of the method: as §1

COLO-679 (Melanoma) = system: COLO-679 (Melanoma)
Summary of the method: as §1

[11] = system: Ca-Ski (Cervical Carcinoma)
Summary of the method: as §1

[12] = system: SK-LU-1 (Lung Adenocarcinoma)
Summary of the method: as §1

[13] = system: HCC1937 (Breast Carcinoma)
Summary of the method: as §1

[14] = system: LC-1-sq (Squamous Cell Lung Carcinoma)
Summary of the method: as §1

[15] = system: KOPN-8 (B-Lymphoblastic Leukemia)
Summary of the method: as §1

EW-1 (Ewing's Sarcoma) = system: EW-1 (Ewing's Sarcoma)
Summary of the method: as §1

[16] = system: EJM (Plasma Cell Myeloma)
Summary of the method: as §1

[17] = system: NCI-H1092 (Small Cell Lung Carcinoma)
Summary of the method: as §1

SMILES | Bliss excess [1] | Bliss excess [2] | Bliss excess [3] | Bliss excess [4] | Bliss excess [5] | Bliss excess [6] | Bliss excess [7] | Bliss excess (SK-N-AS (Neuroblastoma)) | Bliss excess [8] | Bliss excess [9] | Bliss excess [10] | Bliss excess (COLO-679 (Melanoma)) | Bliss excess [11] | Bliss excess [12] | Bliss excess [13] | Bliss excess [14] | Bliss excess [15] | Bliss excess (EW-1 (Ewing's Sarcoma)) | Bliss excess [16] | Bliss excess [17]
O=C(c1cc(Cc2n[nH]c(=O)c3ccccc23)ccc1F)N1CCN(C(=O)C2CC2)CC1 [Olaparib] + COc1nnc2ccc(N3CCC(c4ccc(OCCN5CCN(C)C(=O)[C@H]5C)cc4)CC3)nn12 [AZD5153] (first compound max 10 µM, 7x7, partner max 1 µM) | -0.0708 | -0.0768 | 0.018 | -0.0279 | -0.0406 | -0.0719 | -0.0483 | -0.0662 | -0.0614 | -0.057 | 0.007 | -0.0654 | -0.0179 | -0.0623 |  |  |  |  |  | 
C=CCn1c(=O)c2cnc(Nc3ccc(N4CCN(C)CC4)cc3)nc2n1-c1cccc(C(C)(C)O)n1 [AZD1775] + CCc1c2c(nc3ccc(O)cc13)-c1cc3c(c(=O)n1C2)COC(=O)[C@]3(O)CC [SN-38] (first compound max 1 µM, partner max 0.3 µM) | -0.0641 | -0.0303 | -0.114 | -0.0039 | 0.0228 | -0.0193 | -0.0113 | 0.0032 | -0.0158 | -0.0694 | -0.0249 | -0.171 | 0.0285 | -0.133 |  |  |  |  |  | 
Cc1c2c(nn1C)CSCc1cc(n(C)n1)CSc1cc(c3ccccc3c1)OCCCc1c(C(=O)O)n(C)c3c-2c(Cl)ccc13 [AZD5991] + CC(=O)O[C@H]1C(=O)[C@@]2(C)[C@H]([C@H](OC(=O)c3ccccc3)[C@]3(O)C[C@H](OC(=O)[C@H](O)[C@@H](NC(=O)c4ccccc4)c4ccccc4)C(C)=C1C3(C)C)[C@]1(OC(C)=O)CO[C@@H]1C[C@@H]2O [Paclitaxel] (first compound max 1 µM, 7x7, partner max 3 µM) | 0.0077 | 0.0019 | 0.0025 | 0.0258 | 0.0217 | 0.0151 | 0.231 | -0.0065 | -0.0039 | -0.0386 | -0.0179 | 0.0314 | 0.0422 | -0.0288 |  |  |  |  |  | 
O=C(c1cc(Cc2n[nH]c(=O)c3ccccc23)ccc1F)N1CCN(C(=O)C2CC2)CC1 [Olaparib] + Cc1c2c(nn1C)CSCc1cc(n(C)n1)CSc1cc(c3ccccc3c1)OCCCc1c(C(=O)O)n(C)c3c-2c(Cl)ccc13 [AZD5991] (first compound max 10 µM, 7x7, partner max 1 µM) | -0.0348 | -0.0935 | -0.0651 | -0.0363 | -0.0125 | -0.0533 | -0.0038 | -0.0347 | -0.0011 | -0.0543 | -0.0229 | -0.0555 | -0.0275 | -0.0436 |  |  |  |  |  | 
O=C(c1cc(Cc2n[nH]c(=O)c3ccccc23)ccc1F)N1CCN(C(=O)C2CC2)CC1 [Olaparib] + CN(CC[C@H](CSC1=CC=CC=C1)NC2=C(C=C(C=C2)S(=O)(=O)NC(=O)C3=CC=C(C=C3)N4CCC(CC4)[C@H](C5=CC=CC=C5C6=CC=C(C=C6)Cl)O)S(=O)(=O)C(F)(F)F)CCO [AZD4320] (first compound max 10 µM, 7x7, partner max 1 µM) | -0.0305 | -0.0863 | -0.0153 | -0.021 | -0.0009 | -0.0415 | -0.0342 | -0.0291 | 0.0389 | -0.037 | 0.0353 | -0.0667 | 0.0083 | -0.0445 |  |  |  |  |  | 
O=C(c1cc(Cc2n[nH]c(=O)c3ccccc23)ccc1F)N1CCN(C(=O)C2CC2)CC1 [Olaparib] + CC1(C)CCC(CN2CCN(c3ccc(C(=O)NS(=O)(=O)c4ccc(NCC5CCOCC5)c([N+](=O)[O-])c4)c(Oc4cnc5[nH]ccc5c4)c3)CC2)=C(c2ccc(Cl)cc2)C1 [Venetoclax] (first compound max 10 µM, 7x7, partner max 1 µM) | -0.0254 | -0.0285 | -0.0145 | -0.0274 | 0.001 | -0.0495 | -0.0323 | -0.031 | -0.0429 | -0.0457 | 0.122 | -0.0643 | -0.0069 | -0.0404 |  |  |  |  |  | 
C[C@@H](Oc1cc(-c2cnn(C3CCNCC3)c2)cnc1N)c1c(Cl)ccc(F)c1Cl [Crizotinib] + Cn1cnc2c(F)c(Nc3ccc(Br)cc3Cl)c(C(=O)NOCCO)cc21 [Selumetinib] (first compound max 10 µM, 7x7, partner max 10 µM) | -0.0321 | 0.0212 | -0.086 | 0.0308 | 0.104 | -0.0233 | -0.0374 | -0.0118 | 0.0165 | -0.0199 | -0.0267 | -0.0369 | 0.0464 | -0.0531 |  |  |  |  |  | 
Cc1c2c(nn1C)CSCc1cc(n(C)n1)CSc1cc(c3ccccc3c1)OCCCc1c(C(=O)O)n(C)c3c-2c(Cl)ccc13 [AZD5991] + CS(=O)(=O)CCNCc1ccc(-c2ccc3ncnc(Nc4ccc(OCc5cccc(F)c5)c(Cl)c4)c3c2)o1 [Lapatinib] (first compound max 1 µM, 7x7, partner max 10 µM) | -0.034 | -0.028 | -0.0049 | 0.0624 | -0.0158 | 0.0347 | 0.0116 | -0.0363 | -0.0151 | -0.042 | 0.162 | -0.149 | 0.0164 | -0.0423 |  |  |  |  |  | 
C[C@@H](Nc1cc(F)cc(F)c1)c1cc(C(=O)N(C)C)cc2c(=O)cc(N3CCOCC3)oc12 [AZD8186] + C1CN(CCC1(C(=O)N[C@@H](CCO)C2=CC=C(C=C2)Cl)N)C3=NC=NC4=C3C=CN4 [AZD5363] (first compound max 10 µM, 7x7, partner max 10 µM) | -0.0038 | -0.0959 | 0.0547 | -0.0133 | -0.0364 | -0.0376 | 0.0219 | -0.0294 | -0.0763 | -0.0329 | -0.0657 | -0.12 | -0.0032 | 0.02 |  |  |  |  |  | 
CCc1c2c(nc3ccc(O)cc13)-c1cc3c(c(=O)n1C2)COC(=O)[C@]3(O)CC [SN-38] + CN(C)CCCOc1ccc(-c2ccc3ncc4c(c3c2)n(C2CCOCC2)c(=O)n4C)cn1 [AZD0156] (first compound max 0.3 µM, 7x7, partner max 1 µM) | -0.109 | -0.0373 | -0.0065 | -0.0259 | 0.0727 | -0.0125 | -0.0505 | -0.0061 | -0.0208 | 0.0575 | 0.0451 | -0.0767 | 0.0459 |  | 0.0605 | 0.0912 | 0.0362 | 0.0608 | -0.0052 | -0.0472
CC1(C)CCC(CN2CCN(c3ccc(C(=O)NS(=O)(=O)c4ccc(NCC5CCOCC5)c([N+](=O)[O-])c4)c(Oc4cnc5[nH]ccc5c4)c3)CC2)=C(c2ccc(Cl)cc2)C1 [Venetoclax] + C1CN(CCC1(C(=O)N[C@@H](CCO)C2=CC=C(C=C2)Cl)N)C3=NC=NC4=C3C=CN4 [Capivasertib] (first compound max 1 µM, 7x7, partner max 3 µM) | -0.0493 | -0.0554 | -0.0592 | -0.0015 | -0.0404 | -0.131 | -0.0022 | -0.0237 | -0.0523 | -0.0059 | -0.0206 | -0.0357 | -0.0153 |  | -0.0227 | -0.0136 | -0.0009 | -0.0019 | 0.0067 | 0.0236
CC1(C)CCC(CN2CCN(c3ccc(C(=O)NS(=O)(=O)c4ccc(NCC5CCOCC5)c([N+](=O)[O-])c4)c(Oc4cnc5[nH]ccc5c4)c3)CC2)=C(c2ccc(Cl)cc2)C1 [Venetoclax] + CCN(CCO)CCCOc1ccc2c(Nc3cc(CC(=O)Nc4cccc(F)c4)[nH]n3)ncnc2c1 [AZD2811] (first compound max 1 µM, 7x7, partner max 1 µM) | -0.0375 | -0.0422 | -0.038 | 0.0083 | -0.0186 | -0.0263 | -0.0169 | -0.0071 | -0.0257 | -0.0188 | -0.0133 | -0.0608 | 0.0738 |  | -0.0394 | -0.0099 | 0.0169 | 0.0317 | 0.0261 | 0.075
CC1(C)CCC(CN2CCN(c3ccc(C(=O)NS(=O)(=O)c4ccc(NCC5CCOCC5)c([N+](=O)[O-])c4)c(Oc4cnc5[nH]ccc5c4)c3)CC2)=C(c2ccc(Cl)cc2)C1 [Venetoclax] + C[C@@H](Nc1cc(F)cc(F)c1)c1cc(C(=O)N(C)C)cc2c(=O)cc(N3CCOCC3)oc12 [AZD8186] (first compound max 1 µM, 7x7, partner max 3 µM) | -0.0239 | -0.0264 | -0.0296 | -0.015 | -0.0111 | -0.0441 | -0.0313 | -0.0347 | -0.0813 | -0.0169 | 0.0246 | 0.0001 | -0.0259 |  | -0.0179 | -0.0254 | -0.0088 | -0.001 | 0.0077 | 0.0667
CC(=O)Nc1cccc(-n2c(=O)n(C3CC3)c(=O)c3c(Nc4ccc(I)cc4F)n(C)c(=O)c(C)c32)c1 [Trametinib] + Cc1nc(-c2cn3c(n2)-c2ccc(-c4cnn(C(C)(C)C(N)=O)c4)cc2OCC3)n(C(C)C)n1 [Taselisib] (first compound max 1 µM, 7x7, partner max 10 µM) | 0.0241 | 0.185 | 0.0972 | 0.0713 | -0.0446 | 0.048 | -0.0279 | 0.0104 | 0.0666 | 0.17 | 0.147 | -0.0331 | 0.184 |  | -0.0125 | 0.24 | -0.101 | 0.038 | 0.142 | -0.0174
CC1(C)CCC(CN2CCN(c3ccc(C(=O)NS(=O)(=O)c4ccc(NCC5CCOCC5)c([N+](=O)[O-])c4)c(Oc4cnc5[nH]ccc5c4)c3)CC2)=C(c2ccc(Cl)cc2)C1 [Venetoclax] + Cc1cc2ncnn2cc1Nc1ncc2c(n1)n(C1CCOCC1)c(=O)n2C [AZD7648] (first compound max 1 µM, 7x7, partner max 10 µM) | -0.0166 | -0.0413 | -0.0339 | 0.0013 | -0.0482 | -0.0212 | -0.0037 | -0.0485 | 0.0103 | -0.0449 | -0.022 | -0.0363 | -0.0061 |  | -0.0733 | 0.0004 | 0.0037 | -0.008 | 0.0292 | 0.0303
